The source made the active and inactive calls. The rule behind the calls is not given here.
Key:
[1] = target: T1, Sterol O-acyltransferase 2 (Homo sapiens, UniProt O75908); test: Inhibition of human ACAT2
T1 sequence (O75908 whole entry): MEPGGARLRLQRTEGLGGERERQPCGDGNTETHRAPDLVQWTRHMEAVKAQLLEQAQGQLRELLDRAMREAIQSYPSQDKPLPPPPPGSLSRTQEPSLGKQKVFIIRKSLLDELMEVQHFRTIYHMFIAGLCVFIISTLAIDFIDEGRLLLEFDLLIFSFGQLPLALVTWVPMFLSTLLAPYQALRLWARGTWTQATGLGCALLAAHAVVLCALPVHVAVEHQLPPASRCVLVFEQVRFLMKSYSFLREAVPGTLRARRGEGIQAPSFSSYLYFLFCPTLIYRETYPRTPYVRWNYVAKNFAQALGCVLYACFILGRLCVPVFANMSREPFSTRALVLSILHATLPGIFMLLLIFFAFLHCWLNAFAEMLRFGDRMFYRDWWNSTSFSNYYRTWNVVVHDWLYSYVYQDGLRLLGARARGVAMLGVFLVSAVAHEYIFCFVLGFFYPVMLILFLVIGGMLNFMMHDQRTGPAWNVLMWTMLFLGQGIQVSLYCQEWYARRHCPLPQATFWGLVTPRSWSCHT

Homo sapiens = species on record: Homo sapiens; test: Selectivity ratio of IC50 for human ACAT2 to IC50 for human ACAT1
[2] = target: T2, Sterol O-acyltransferase 1 (Homo sapiens, UniProt P35610); test: Inhibition of human ACAT1
T2 sequence (P35610 whole entry): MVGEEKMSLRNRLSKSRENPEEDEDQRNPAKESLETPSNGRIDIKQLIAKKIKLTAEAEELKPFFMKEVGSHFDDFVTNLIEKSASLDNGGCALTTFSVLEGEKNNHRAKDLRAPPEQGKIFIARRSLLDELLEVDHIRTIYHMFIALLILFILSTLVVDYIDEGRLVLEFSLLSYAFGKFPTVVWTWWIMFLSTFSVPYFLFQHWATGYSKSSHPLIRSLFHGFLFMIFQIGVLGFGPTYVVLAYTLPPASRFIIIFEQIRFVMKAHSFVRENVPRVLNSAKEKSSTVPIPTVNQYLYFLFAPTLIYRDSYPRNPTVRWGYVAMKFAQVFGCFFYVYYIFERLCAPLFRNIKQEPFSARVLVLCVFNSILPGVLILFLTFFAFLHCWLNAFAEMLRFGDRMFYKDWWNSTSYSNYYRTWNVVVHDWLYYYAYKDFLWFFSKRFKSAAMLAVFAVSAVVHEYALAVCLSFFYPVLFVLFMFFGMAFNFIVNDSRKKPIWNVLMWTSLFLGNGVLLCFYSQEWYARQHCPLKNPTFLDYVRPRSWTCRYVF

[3] = target: T3, Sterol O-acyltransferase 2 (Chlorocebus aethiops, UniProt O77759); test: Inhibition of African green monkey ACAT2 expressed in CHO cells assessed as reduction in [14C]CE formation using [1-14C]oleoyl-CoA measured after 6 hrs by TLC method; assay type: cell-based
T3 sequence (O77759 whole entry): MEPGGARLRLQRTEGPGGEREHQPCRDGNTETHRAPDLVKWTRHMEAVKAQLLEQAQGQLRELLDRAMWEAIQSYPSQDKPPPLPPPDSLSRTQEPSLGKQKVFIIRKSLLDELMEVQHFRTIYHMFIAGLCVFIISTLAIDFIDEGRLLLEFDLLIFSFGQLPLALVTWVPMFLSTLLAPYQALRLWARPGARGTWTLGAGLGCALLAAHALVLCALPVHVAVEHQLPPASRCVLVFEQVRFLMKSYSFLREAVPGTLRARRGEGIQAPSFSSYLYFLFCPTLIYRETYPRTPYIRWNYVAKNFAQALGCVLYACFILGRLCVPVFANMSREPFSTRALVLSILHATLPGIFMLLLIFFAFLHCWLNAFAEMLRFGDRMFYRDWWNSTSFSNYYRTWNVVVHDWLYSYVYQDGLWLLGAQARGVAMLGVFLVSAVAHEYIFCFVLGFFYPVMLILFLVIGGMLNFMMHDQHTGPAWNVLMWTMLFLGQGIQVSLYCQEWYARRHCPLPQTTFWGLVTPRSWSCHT

Mus musculus [4] = test: Reduction in membrane/insoluble amyloid beta level in C57BL/6 mouse overexpressing human APP751 with London (V717I) and Swedish ([…]) mutation administered as pellets into bloodstream; assay type: functional
Mus musculus [5] = test: Reduction in brain cholesteryl esters in C57BL/6 mouse overexpressing human APP751 with London (V717I) and Swedish ([…]) mutation administered as pellets into bloodstream; assay type: functional
Mus musculus [6] = test: Reduction in accumulation of amyloid plaque in C57BL/6 mouse overexpressing human APP751 with London (V717I) and Swedish ([…]) mutation administered as pellets into bloodstream; assay type: functional
Mus musculus [7] = test: Reduction in soluble amyloid beta42 in brain homogenates of C57BL/6 mouse overexpressing human APP751 with London (V717I) and Swedish ([…]) mutation administered as pellets into bloodstream; assay type: functional
[8] = target: T4, Sterol O-acyltransferase 2 (Homo sapiens) (UniProt O75908); test: Inhibition of human ACAT2 at 1 mM
T4 sequence (whole entry): T1 sequence (O75908 whole entry)

[9] = target: T5, Sterol O-acyltransferase 1 (Mus musculus) (UniProt Q61263); test: Inhibition of ACAT1 in mouse N9 cells assessed as induction of autophagy by measuring LC3-2 at 0.1 uM by Western blot analysis; assay type: cell-based
T5 sequence (whole entry): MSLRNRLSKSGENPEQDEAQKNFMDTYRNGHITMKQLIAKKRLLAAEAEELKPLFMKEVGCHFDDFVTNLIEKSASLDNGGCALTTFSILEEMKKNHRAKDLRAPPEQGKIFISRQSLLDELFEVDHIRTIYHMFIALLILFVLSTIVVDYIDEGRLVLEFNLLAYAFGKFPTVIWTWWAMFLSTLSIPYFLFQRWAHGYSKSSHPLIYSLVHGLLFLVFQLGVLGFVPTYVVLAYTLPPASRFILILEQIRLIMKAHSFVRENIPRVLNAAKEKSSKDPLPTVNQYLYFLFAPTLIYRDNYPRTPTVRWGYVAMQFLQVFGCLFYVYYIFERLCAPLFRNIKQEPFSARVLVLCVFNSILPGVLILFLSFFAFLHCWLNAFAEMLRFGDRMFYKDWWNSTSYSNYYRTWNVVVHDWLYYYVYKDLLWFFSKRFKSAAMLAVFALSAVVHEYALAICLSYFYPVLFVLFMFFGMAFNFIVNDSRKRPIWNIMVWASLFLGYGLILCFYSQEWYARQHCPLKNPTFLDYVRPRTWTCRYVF

[10] = target: T5, Sterol O-acyltransferase 1 (Mus musculus); test: Inhibition of ACAT1 in mouse N9 cells; assay type: cell-based
[11] = target: T5, Sterol O-acyltransferase 1 (Mus musculus); test: Inhibition of ACAT1 in TFEB knock-down mouse N9 cells assessed as autophagosome formation by measuring LC3-2 levels; assay type: cell-based
[12] = target: T5, Sterol O-acyltransferase 1 (Mus musculus); test: Inhibition of ACAT1 in mouse N9 cells assessed as effect on autophagosome formation by measuring LC3-2 levels in presence of squalene synthase inhibitor CP-340868; assay type: cell-based
[13] = target: T5, Sterol O-acyltransferase 1 (Mus musculus); test: Inhibition of ACAT1 in mouse N9 cells assessed as effect on […] by measuring p62 levels in presence of Torin-1 by Western blot analysis; assay type: cell-based
[14] = target: T5, Sterol O-acyltransferase 1 (Mus musculus); test: Inhibition of ACAT1 in mouse N9 cells assessed as reduction in oligomeric amyloid beta 1 to 42 pretreated for 24 hrs followed by oligomeric amyloid beta 1 to 42 addition measured after 12 hrs by Western blot analysis relative to control; assay type: cell-based; conditions: concentration not given here
[15] = target: T5, Sterol O-acyltransferase 1 (Mus musculus); test: Inhibition of ACAT1 in mouse N9 cells assessed as increase in lysosome biogenesis by measuring Lyso tracker fluorescence measured after 8 hrs by Lyso tracker staining based flow cytometry; assay type: cell-based
[16] = target: T5, Sterol O-acyltransferase 1 (Mus musculus); test: Inhibition of ACAT1 in mouse N9 cells assessed as increase in autophagic flux by measuring LC3-2 levels in presence of Torin-1 by Western blot analysis; assay type: cell-based
[17] = target: T5, Sterol O-acyltransferase 1 (Mus musculus); test: Inhibition of ACAT1 in mouse N9 cells assessed as increase in late endosomes/lysosomes volume measured after 8 hrs by Lyso tracker staining based flow cytometry relative to control; assay type: cell-based; conditions: concentration not given here
[18] = target: T5, Sterol O-acyltransferase 1 (Mus musculus); test: Inhibition of ACAT1 in mouse N9 cells at 0.1 uM measured after 8 hrs by Lyso tracker staining based flow cytometry relative to control; assay type: cell-based
[19] = target: T5, Sterol O-acyltransferase 1 (Mus musculus); test: Inhibition of ACAT1 in mouse N9 cells assessed as increase in TFEB target genes mRNA expression measured after 8 hrs by qPCR analysis; assay type: cell-based
[20] = target: T5, Sterol O-acyltransferase 1 (Mus musculus); test: Inhibition of ACAT1 in wild type mouse microglia assessed as increase in clearance of oligomeric amyloid beta at 1 uM pretreated for 24 hrs followed by oligomeric amyloid beta addition measured after 18 hrs by western blot analysis relative to control
[21] = target: T5, Sterol O-acyltransferase 1 (Mus musculus); test: Inhibition of ACAT1 in mouse N9 cells assessed as increase in Cys-amyloid beta 1 to 42 uptake pretreated for 8 hrs followed by Cys-amyloid beta 1 to 42 addition measured after 3 hrs by flow cytometry relative to control; assay type: cell-based; set-up: scale not given: the % may be the effect or the level left
[22] = target: T3, Sterol O-acyltransferase 2; test: Inhibition of African green monkey ACAT2 expressed in mouse AC29 cells assessed as reduction in esterification of NBD-cholesterol preincubated for 20 mins followed by NBD-cholesterol addition measured after 6 hrs by high-performance TLC method; assay type: cell-based
[23] = target: T1, Sterol O-acyltransferase 2; test: Inhibition of ACAT2 (unknown origin)

In the case of `CCOC(=O)OC(=O)OCC` [DIETHYL PYROCARBONATE], the IC50 [1] is reported as 170 µM, the Ratio IC50 (Homo sapiens) is reported as 4 and the IC50 [2] is reported as 44 µM.
Molecule `CCCC[C@H](C)[C@@H]1CC(=O)N[C@@H](Cc2ccccc2)C(=O)N[C@@H](C)C(=O)N[C@H](CC(C)C)C(=O)O1` [BEAUVERIOLIDE I] has an IC50 [3] of 20 µM.
For `CCCCCCCC[C@H](SCCCCCC)C(=O)Nc1c(SC)cc(C)nc1SC`, the “inhibition (INH)” value (Mus musculus [4]) was 83 - 96%, the “inhibition (INH)” value (Mus musculus [5]) was 86% and the “inhibition (INH)” value (Mus musculus [6]) was 88 - 99%. The “inhibition (INH)” value (Mus musculus [7]) was 34%.
With `COc1ccc([C@@H](O)[C@@H](C)Oc2ccc([C@H]3O[C@H](c4ccc(O[C@H](C)[C@H](O)c5ccc6c(c5)OCO6)c(OC)c4)[C@H](C)[C@H]3C)cc2OC)cc1OC` the inhibition [8] was 32%.
`CSc1cc(C)nc(SC)c1NC(=O)CN1CCN(CCSc2nc3ccccc3[nH]2)CC1` was tested, and the inhibition [9] was “Active”, the inhibition [10] was “Dose-dependent effect” and the inhibition [11] was “Active”. For the same molecule, the inhibition [12] was “Active”, the inhibition [13] was “Active” and the inhibition [14] was 58%. For the same molecule, the inhibition [15] was “Active”, the inhibition [16] was “Active” and the inhibition [17] was 27%. For the same molecule, the inhibition [18] was 80%, the inhibition [19] was “Active” and the inhibition [20] was under 65%. It also gave an Activity [21] of 23%.
Work on `CC(C)c1cccc(C(C)C)c1NC(=O)CC(=O)C(Cc1ccccc1)Cc1ccc(OC(=O)CCCCCCN2CCCCCC2=O)cc1` (centres undefined) yielded an IC50 [22] of 0.53 µM.
`CCCCCCCCCCCCS[C@H](C(=O)Nc1cc(C)c(O)c(C)c1C)c1ccccc1` [EFLUCIMIBE] showed an IC50 [23] of 0.11 µM.

From ChEMBL document CHEMBL3882390, “Method for selectively inhibiting ACAT1 in the treatment of neurodegenerative diseases” (2014)
